The test system of experiment [1] is bone marrow-derived mast cells. Kind of experiment: cytokine production (IL-6 and TNF-α) of mast cells, ELISA. The format is cell-based. As to conditions: TPEN 0, 2, 5 and 10 μM; DNP-HSA 100 ng/ml for 6 hours; FIG. 3. The method, then:
As mast cells sensitized with IgE antibody, the cells prepared in the same way as described in Example 1 were used. After sensitization, the mast cells were resuspended in Tyrode's buffer. The mast cell suspension was stimulated with an antigen (DNP-HSA) at a concentration of 100 ng/ml for 6 hours. To investigate the effect of zinc ions, a zinc ion chelator TPEN (0, 2, 5 and 10 μM) was allowed to coexist with the cells for 2 hours during sensitization and for 6 hours of the stimulation.
The concentrations of cytokines (IL-6 and TNF-α) in the supernatant were determined using ELISA (BIOSOURCE).

Experiment [2] concerns bone marrow-derived mast cells. Nature of the experiment: restoration of TPEN effect on β-hexosaminidase release by enforced introduction of zinc ion. The class given is cell-based. As to conditions: TPEN 10 μM; 1 μM pyrithione and zinc ions during DNP-HSA stimulation; FIG. 2. As to the method:
As mast cells sensitized with IgE antibody, the cells prepared in the same way as in Example 1 were used. After sensitization, the mast cells were resuspended in Tyrode's buffer. A zinc ion chelator TPEN (10 μM) was allowed to coexist with the cells for 2 hours during the sensitization period and for 30 minutes of the stimulation. To introduce zinc ions into the cells, the cells were treated with 1 μM pyrithione (Molecular probes, p-24193) during the stimulation, and zinc ions were added at each concentration (shown in FIG. 2) to Tyrode's buffer. The activity of β-hexosaminidase was measured in the same way as in Example 1. TPEN-untreated cells were used as a control, and the extracellular release of entire β-hexosaminidase present in the cell was defined as 100%.

In experiment [3] the test system is passive cutaneous anaphylaxis. Nature of the experiment: passive cutaneous anaphylaxis (type I allergy) model, Evans blue dye leakage. The class given is in vivo. As to conditions: TPEN intraperitoneally 30 minutes before DNP-BSA challenge; mouse ear; FIG. 4. The method, then: Mouse (6 week-old female, Balb/c Ajc1, CLEA Japan) was sensitized by subcutaneously administering 0.5 μg of IgE antibody (SPE-7, SIGMA) into the ear in order to induce passive cutaneous anaphylaxis. 30 minutes later, passive cutaneous anaphylaxis was induced by intravenous injection of 250 μg of antigen DNP-BSA (COSMOBIO) and 1.25 mg of Evans blue (SIGMA) into the tail of the mouse. In order to digitalize Evans blue dye leakage, the dye was extracted from the ear of the mouse using formamide. The extracted dye was measured by absorbance at wavelength of 620 nm. The amount of dye in each experiment was calculated from the analytical curve obtained by known amounts of Evans blue.

The subject of experiment [4] is bone marrow-derived mast cells. Nature of the experiment: antigen stimulation-dependent chemical mediator (β-hexosaminidase) release (degranulation) from mast cells. The class given is cell-based. As to conditions: TPEN 0, 2, 5 and 10 μM; IgE-sensitized mast cells stimulated with DNP-HSA for 30 minutes; FIG. 1. The method, then: The mast cells used were bone marrow-derived mast cells whose differentiation was induced by culturing bone marrow cells with interleukin-3 for 5 weeks. The obtained bone marrow-derived mast cells (1×10^7 cells) were sensitized with 1 μg/mL IgE antibody (SPE-7 clone; available from SIGMA) for 6 hours. After sensitization, the cells were resuspended in Tyrode's buffer (pH 7.4). The composition of the Tyrode's buffer is as described in Table 1.
The obtained mast cell suspension was stimulated with an antigen (DNP-HSA; dinitrophenyl conjugated Human Serum Albumin; available from SIGMA) at each concentration (shown in FIG. 1) for 30 minutes. To investigate the effect of zinc ions, a zinc ion chelator TPEN (0, 2, 5 and 10 μM) was allowed to coexist with the cells for 2 hours during the sensitization period and for 30 minutes of the stimulation. Chemical mediator β-hexosaminidase released from the mast cells was measured. The activity of β-hexosaminidase was measured with an absorption spectrometer at wavelength of 405 nm by using 4-nitrophenyl N-acetyl-β-D-glucosaminide (available from SIGMA) as a substrate. The extracellular release of entire β-hexosaminidase present in the cell was defined as 100%.

Regarding `c1ccc(CN(CCN(Cc2ccccn2)Cc2ccccn2)Cc2ccccn2)nc1` [TPEN, N,N,N′,N′-tetrakis(2-pyridylmethyl)ethylenediamine], in experiment [1], the “cytokine production (IL-6 and TNF-α in supernatant)” value is “dose dependent suppression”. Further, the “suppressive effect on the chemical mediator release after addition of zinc ions” value in experiment [2] was “restored by the addition of the zinc ions”. The “dye leakage of Evans blue” value in experiment [3] is listed as “suppressed dose-dependently”. Besides, the “chemical mediator (β-hexosaminidase) release” value in experiment [4] was “concentration-dependent suppressive effect”.

Values taken from US20090203749A1, “AGENT FOR CONTROL OF DEGRANULATION REACTION AND CYTOKINE PRODUCTION” (RIKEN, priority 2005, published 2009).
